Data as given in patent publication US6586216B2 (Purdue Research Foundation, priority 1997, dated 2003).
Values joined by “and” are separate entries in the source; they are usually repeats but may differ in a detail not shown here. Equal entries are not always repeated. Where two headings read alike, the source gives them in different places.

Key:
[1] = target: T1, glutamine PRPP amidotransferase S347A mutant enzyme (Bacillus subtilis, UniProt P00497, S358A); type: biochemical
T1 construct: Enzymes of the B. subtilis class are synthesized with an NH2 terminal propeptide and an Fe—S center; made in house; host or cells: E. coli strain TX158 (purF) with plasmid pBsF/S347A
Description: (§1) Enzyme activity was assayed by measuring the initial rate of formation of the product glutamate. […] Incubation was at 37° C. for 6 min. […] Reactions were quenched in a boiling water bath for 2 min, and glutamate was determined by the glutamate dehydrogenase method.
(§2) Inhibition by nucleotides was determined by the standard assay to which varied concentrations of nucleotide were added. Synergistic inhibition was determined by varying the concentration of one nucleotide in the presence of a fixed concentration of a second nucleotide. Relative activity (see FIG. 1) refers to the enzyme activity at a given concentration of the varied nucleotide relative to that in the absence of the varied nucleotide. I0.5 values were calculated from plots of relative activity versus varied nucleotide concentration.
(§3) These modified forms of amidotransferase were analyzed to determine the impact of the mutations on end-product inhibition and enzymatic activity. Inhibition by nucleotides was determined as described in Example 1.

[2] = target: T2, Bacillus subtilis glutamine PRPP amidotransferase variant K305Q (Bacillus subtilis, UniProt P00497, K316Q); assay: Inhibition of enzyme activity (glutamate formation) by nucleotides, mutant K305Q; type: biochemical
T2 construct: Enzymes of the B. subtilis class are synthesized with an NH2 terminal propeptide; made in house; host or cells: E. coli strain TX158 (purF), plasmid pBsF/K305Q
Source text: (§4) Plasmid pGZ1 was used for production of the wild type enzyme. Plasmid pGZ1 contains a 1.6 kb EcoRI-HindIII purF^+ fragment (Makaroff, C. A., Zalkin, H., Switzer, R. L., and Vollmer, S. J. (1983) J. Biol. Chem. 258, pp. 10586-10593) inserted into the corresponding sites of pUC18. For construction of mutants, the EcoRI-HindIII purF^+ DNA was transferred to pUC118 to yield pBsF. Mutations were constructed by the method of Kunkel et al. (Kunkel, T. A., Roberts, J. D., and Zakour, R. A. (1987) Methods Enzymol. 154, pp. 367-382) using pBsF phagemid DNA. The resulting plasmids were named pBsF/S283A, pBsF/K305Q, pBsF/R307Q, and pBsF/S347A.
(§5) Enzyme activity was assayed by measuring the initial rate of formation of the product glutamate. […] Incubation was at 37° C. for 6 min. The reaction was linear with time for at least 20 min under these conditions of assay. Reactions were quenched in a boiling water bath for 2 min, and glutamate was determined by the glutamate dehydrogenase method. The control reaction mixture contained all the components except PRPP.
as §2
as §3, with “Site directed mutagenesis was utilized to modify amino acids comprising the A site and C site domains of the glutamine PRPP amidotransferase. These” for “These”

[3] = target: T3, wild type B. subtilis glutamine PRPP amidotransferase (Bacillus subtilis, UniProt P00497); assay: Nucleotide binding by equilibrium dialysis; conditions: for Kd: apparent Kd, half-saturation of A and C sites
T3 construct: Enzymes of the B. subtilis class are synthesized with an NH2 terminal propeptide and an Fe—S center; made in house; host or cells: E. coli strain TX158 (purF) with plasmid pGZ1
T3 sequence (P00497 12-476): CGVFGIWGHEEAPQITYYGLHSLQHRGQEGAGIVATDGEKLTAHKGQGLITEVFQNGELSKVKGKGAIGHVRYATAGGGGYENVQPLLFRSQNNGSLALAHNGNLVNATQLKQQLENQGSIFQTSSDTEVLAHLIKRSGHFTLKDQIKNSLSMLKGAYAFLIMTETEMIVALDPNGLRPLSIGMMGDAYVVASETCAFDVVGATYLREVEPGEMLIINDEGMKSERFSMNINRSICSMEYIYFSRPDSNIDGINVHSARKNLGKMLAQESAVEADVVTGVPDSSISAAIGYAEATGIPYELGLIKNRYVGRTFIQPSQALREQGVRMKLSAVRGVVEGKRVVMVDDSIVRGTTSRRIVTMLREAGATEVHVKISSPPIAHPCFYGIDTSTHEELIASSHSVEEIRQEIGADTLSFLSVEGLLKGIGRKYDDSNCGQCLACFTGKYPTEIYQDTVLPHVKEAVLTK
Description: Nucleotide binding was determined by equilibrium dialysis using chambers of 150 μL that were separated by a 12000-14000 molecular weight dialysis membrane. […] In some experiments, the chambers with radioactive nucleotide also contained a fixed concentration of a second non-radioactive nucleotide. The other chamber contained 50 mM Tris-HCl (pH 7.5) and 50-200 μM enzyme, calculated as the subunit concentration, in a volume of 100 μL. Dialysis was carried out for 20 h at room temperature (˜22° C.) in a rotating apparatus. Samples of 80 μL were retrieved from each chamber and were counted for radioactivity. All experiments were performed in an anaerobic glovebox. […] Equilibrium binding data were fit to the Hill equation (Y=C [free ligand]^n/[…]+[free ligand]^n, where Y is the fractional saturation, C is the binding capacity, Kd is the dissociation constant, and n is the Hill coefficient) by nonlinear regression using Ultrafit software (Biosoft, Cambridge, UK).

[4] = target: T4, Bacillus subtilis glutamine PRPP amidotransferase variant S347A (Bacillus subtilis, UniProt P00497, S358A); assay: biochemical; type: biochemical
T4 construct: Enzymes of the B. subtilis class are synthesized with an NH2 terminal propeptide; made in house; host or cells: E. coli strain TX158 (purF), plasmid pBsF/S347A
Source text: as §4, §1, §2, §3

[5] = target: T5, Bacillus subtilis glutamine PRPP amidotransferase variant S283A (Bacillus subtilis, UniProt P00497, S294A); assay: Inhibition of enzyme activity (glutamate formation) by nucleotides, mutant S283A; type: biochemical; conditions: for increase of concentration for 50% inhibition relative to wild type: ADP-GMP mixture
T5 construct: Enzymes of the B. subtilis class are synthesized with an NH2 terminal propeptide; made in house; host or cells: E. coli strain TX158 (purF), plasmid pBsF/S283A
Source text: as §4, §5, §2
as §3, with “Site directed mutagenesis was utilized to modify amino acids comprising the A site and C site domains of the glutamine PRPP amidotransferase. These” for “These”

[6] = I0.5, no fixed nucleotide, 2.5 mM PRPP, pH 8.0, 37° C.
[7] = no fixed nucleotide, at saturation ± standard error
[8] = I0.5, fixed ADP 0.8 mM (footnote c)
[9] = I0.5, fixed GMP 1.4 mM (footnote c)

T2 sequence (P00497 12-476 K316Q): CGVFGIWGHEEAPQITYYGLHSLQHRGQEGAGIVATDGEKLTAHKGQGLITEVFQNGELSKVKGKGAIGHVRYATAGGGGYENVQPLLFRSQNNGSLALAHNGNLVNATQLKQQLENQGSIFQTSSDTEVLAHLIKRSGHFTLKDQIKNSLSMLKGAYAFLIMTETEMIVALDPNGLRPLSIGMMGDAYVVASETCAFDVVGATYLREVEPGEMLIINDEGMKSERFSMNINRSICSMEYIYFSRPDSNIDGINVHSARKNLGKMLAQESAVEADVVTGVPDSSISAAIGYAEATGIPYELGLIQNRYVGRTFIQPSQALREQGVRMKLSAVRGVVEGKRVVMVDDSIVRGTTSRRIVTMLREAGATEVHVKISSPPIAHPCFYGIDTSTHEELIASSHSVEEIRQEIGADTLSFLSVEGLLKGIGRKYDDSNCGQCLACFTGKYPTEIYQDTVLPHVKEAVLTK
T4 sequence (P00497 12-476 S358A): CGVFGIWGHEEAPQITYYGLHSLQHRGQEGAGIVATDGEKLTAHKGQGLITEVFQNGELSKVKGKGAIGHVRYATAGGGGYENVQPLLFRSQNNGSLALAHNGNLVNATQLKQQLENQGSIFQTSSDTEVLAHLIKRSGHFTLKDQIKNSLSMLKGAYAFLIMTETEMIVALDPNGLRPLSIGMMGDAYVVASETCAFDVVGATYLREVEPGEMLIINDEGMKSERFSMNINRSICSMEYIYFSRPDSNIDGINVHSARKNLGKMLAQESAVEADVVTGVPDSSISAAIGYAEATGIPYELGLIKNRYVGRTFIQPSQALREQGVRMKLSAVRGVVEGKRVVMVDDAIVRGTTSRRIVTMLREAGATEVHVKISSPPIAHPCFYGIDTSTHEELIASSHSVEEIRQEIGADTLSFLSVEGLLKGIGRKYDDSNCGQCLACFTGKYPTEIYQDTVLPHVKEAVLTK
T1 sequence (P00497 12-476 S358A): as above
T5 sequence (P00497 12-476 S294A): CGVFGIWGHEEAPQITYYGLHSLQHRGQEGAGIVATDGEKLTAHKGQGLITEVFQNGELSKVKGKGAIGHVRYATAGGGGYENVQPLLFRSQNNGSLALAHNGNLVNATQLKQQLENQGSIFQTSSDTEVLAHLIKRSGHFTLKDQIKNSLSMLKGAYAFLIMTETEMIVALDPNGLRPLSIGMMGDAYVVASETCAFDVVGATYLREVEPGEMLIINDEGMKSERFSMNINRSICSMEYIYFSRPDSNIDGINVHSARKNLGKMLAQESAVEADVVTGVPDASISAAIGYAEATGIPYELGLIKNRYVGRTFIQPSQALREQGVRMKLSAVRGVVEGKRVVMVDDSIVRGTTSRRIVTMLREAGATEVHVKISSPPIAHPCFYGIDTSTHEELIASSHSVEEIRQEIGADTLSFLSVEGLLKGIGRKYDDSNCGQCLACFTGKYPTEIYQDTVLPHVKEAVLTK

Row | Structure (SMILES) | syn. ([1]; fixed ADP 0.8 mM (footnote c)) | syn. ([1]; fixed GMP 1.4 mM (footnote c)) | IC50 [2, 6] [µM] | Capacity ([3]; fixed ADP 0.5 mM) | Hill coefficient ([3]; fixed GMP 1.0 mM) | Capacity [3, 7] | Hill coefficient ([3]; no fixed nucleotide, binding) | IC50 [4, 8] [µM] | IC50 [4, 9] [µM] | IC50 [4, 6] [µM] | syn. (decreased I0.5 due to a second nucleotide) ([4]; fixed ADP 0.8 mM (footnote c)) [fold] | syn. (decreased I0.5 due to a second nucleotide) ([4]; fixed GMP 1.4 mM (footnote c)) [fold] | IC50 [5, 6] [µM] | I0.5 increase relative to wild type ([5]; no fixed nucleotide) | decreased inhibition relative to wild type ([5]; no fixed nucleotide) | increase of concentration for 50% inhibition relative to wild type [5] [fold] | further results
1 | Nc1ncnc2c1ncn2[C@@H]1O[C@H](COP(=O)(O)O)[C@@H](O)[C@H]1O [AMP] | 2.3 | 0.8 | 2500 | approximately 0.4 equivalents bound per subunit | 2.1 ± 0.80 | 1.57 equivalents bound per subunit and 1.57 ± 0.27 equivalents bound per subunit | 3.4 and 3.4 ± 1.8 | 650 | 1800 | 1500 | 2.3 | 0.8 | 6100 | 5-7 fold | 5-7 fold |  | Kd ([3]; Kd, no fixed nucleotide): 214 µM and > 500 µM; increase in binding affinity by second nucleotide ([3]; by GMP or ADP): 2-3 fold; Hill coefficient ([3]; fixed ADP 0.25 mM): 2.3 ± 1.2
2 | Nc1nc2c(ncn2[C@@H]2O[C@H](COP(=O)(O)O)[C@@H](O)[C@H]2O)c(=O)[nH]1 [GMP] | 33.0 |  | 50000 | 1 equivalents bound per subunit and 0.98 ± 0.10 equivalents bound per subunit |  |  |  | 440 |  | 14000 | 33.0 |  | 6600 |  |  | 13 | I0.5 increase compared to wild type ([1]; inhibition at the C site, ADP fixed): 3 fold; IC50 ([2]; I0.5, fixed ADP 0.5 mM): 6000 µM; IC50 ([2]; I0.5, fixed ADP 2.5 mM): 1300 µM; syn. (decreased I0.5 due to a second nucleotide) ([2]; fixed ADP 0.5 mM): 8.3 fold; syn. (decreased I0.5 due to a second nucleotide) ([2]; fixed ADP 2.5 mM): 38.0 fold; increased C site binding affinity relative to IMP and AMP ([3]; ADP bound to the A site): 3 fold; Hill coefficient ([3]; fixed ADP 0.5 mM): 2.1 ± 1.0; Kd of GMP for the free enzyme, estimated assuming 20-fold synergism ([3]; no fixed nucleotide): approximately 500 μM; Kd ([3]; no fixed nucleotide): too weak to detect; I0.5 increase relative to wild type ([4]; inhibition at the C site): 3 fold; IC50 ([5]; I0.5, fixed ADP 0.5 mM): 2000 µM; IC50 ([5]; I0.5, fixed ADP 2.5 mM): 1700 µM; syn. (decreased I0.5 due to a second nucleotide) ([5]; fixed ADP 0.5 mM): 3.3 fold; syn. (decreased I0.5 due to a second nucleotide) ([5]; fixed ADP 2.5 mM): 3.9 fold; inhibition compared with wild type ([5]; no fixed nucleotide): similar
3 | Nc1ncnc2c1ncn2[C@@H]1O[C@H](COP(=O)(O)OP(=O)(O)O)[C@@H](O)[C@H]1O [ADP] |  | 37.0 | 31000 |  | 1.7 ± 0.9 | 1.83 equivalents bound per subunit and 1.83 ± 0.26 equivalents bound per subunit | 1.8 and 1.8 ± 0.65 |  | 220 | 8100 |  | 37.0 | 24000 | 5-7 fold | 5-7 fold | 30 | IC50 ([2]; I0.5, fixed GMP 0.50 mM): 12000 µM; IC50 ([2]; I0.5, fixed GMP 5.0 mM): 320 µM; syn. (decreased I0.5 due to a second nucleotide) ([2]; fixed GMP 0.50 mM): 2.6 fold; syn. (decreased I0.5 due to a second nucleotide) ([2]; fixed GMP 5.0 mM): 97.0 fold; synergistic binding (decrease of Kd by second nucleotide) ([3]; ADP-GMP pair): 20 fold; equiv bound ([3]; GMP fixed at either 0.25 or 1.0 mM): approximately 1 equiv; Capacity ([3]; fixed GMP 0.25 mM): 0.82 ± 0.11 equivalents bound per subunit; Hill coefficient ([3]; fixed GMP 0.25 mM): 1.8 ± 0.8; Capacity ([3]; fixed GMP 1.0 mM): 0.94 ± 0.14 equivalents bound per subunit; IC50 ([5]; I0.5, fixed GMP 0.50 mM): 4800 µM; syn. (decreased I0.5 due to a second nucleotide) ([5]; fixed GMP 0.50 mM): 5.0 fold
